The values below come from PubChem BioAssay AID1671332.

The structures appear in SMILES notation. pIC50: −log10 of the molar value.

The target in this assay is Serine/threonine-protein kinase Nek7 (Homo sapiens) (UniProt Q8TDX7). As to the kind of experiment: NEK7 kinase inhibitors, dose response, biochemical, Z'-LYTE FRET, direct format, recombinant human (AID 1671332). The note with it: Z'-LYTE FRET kinase activity.
Sequence of Serine/threonine-protein kinase Nek7 (Homo sapiens) (Q8TDX7 whole entry, looked up): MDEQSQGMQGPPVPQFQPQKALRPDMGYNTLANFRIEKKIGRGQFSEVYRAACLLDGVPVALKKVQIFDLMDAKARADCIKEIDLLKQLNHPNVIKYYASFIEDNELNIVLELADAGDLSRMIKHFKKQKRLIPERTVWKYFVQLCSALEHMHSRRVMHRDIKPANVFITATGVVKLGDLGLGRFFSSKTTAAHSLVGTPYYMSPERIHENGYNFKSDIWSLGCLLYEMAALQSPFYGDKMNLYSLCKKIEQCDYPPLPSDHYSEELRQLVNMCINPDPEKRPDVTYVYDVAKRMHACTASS

By pIC50 is commonly meant the IC50 on a negative log10 scale, so that one unit is a factor of ten. As for `CN1C(=O)C2(Cc3cn(C45CC67SSC(CO)(C(=O)N6C4Nc4ccccc45)N(C)C7=O)c4ccccc34)SSC1(CO)C(=O)N2C` (stereo unspecified), the pIC50 is 6.56.
